Test results from patent publication US20260262643A1, “HERBICIDAL BENZOXAZINES” (FMC CORPORATION, priority 2022, published 2026).
Read-outs that look alike come from different tables or passages of the source.

Columns and labels:
[1] = test system: blackgrass; experiment: Test A preemergence; assay type: in vivo, Alopecurus myosuroides; settings: Alopecurus myosuroides, pre-emergence, 240 h, read-out: Plant response rating, Blackgrass; for pest or weed control at 125 g/ha: 125 g ai/ha, visual injury after 10 days, 0 to 100 scale, 0 is no effect, 100 is complete control; for pest or weed control at 500 g/ha: 500 g ai/ha, 0 to 100 scale (0 no effect, 100 complete control), 10 days
Summary of the method: (§1)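 Greenhouse pot test, 10 days. Compound (non-phytotoxic solvent, surfactant) sprayed on soil at seeding or on seedlings at one- to two-leaf stage. Visual injury rated 0–100 against untreated plants.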

[2] = test system: goosegrass; experiment: Test A preemergence; assay type: in vivo, Eleusine indica; settings: Eleusine indica, pre-emergence, 240 h, read-out: Plant response rating, Goosegrass; for pest or weed control at 125 g/ha: 125 g ai/ha, visual injury after 10 days, 0 to 100 scale, 0 is no effect, 100 is complete control; for pest or weed control at 500 g/ha: 500 g ai/ha, 0 to 100 scale (0 no effect, 100 complete control), 10 days
Summary of the method: as §1

[3] = test system: kochia; experiment: Test A preemergence; assay type: in vivo, Bassia scoparia; settings: Bassia scoparia, pre-emergence, 240 h, read-out: Plant response rating, Kochia; for pest or weed control at 125 g/ha: 125 g ai/ha, visual injury after 10 days, 0 to 100 scale, 0 is no effect, 100 is complete control; for pest or weed control at 500 g/ha: 500 g ai/ha, 0 to 100 scale (0 no effect, 100 complete control), 10 days
Summary of the method: as §1

[4] = test system: oat, wild; experiment: Test A preemergence; assay type: in vivo, Avena fatua; settings: Avena fatua, pre-emergence, 240 h, read-out: Plant response rating, Oat, Wild; for pest or weed control at 125 g/ha: 125 g ai/ha, visual injury after 10 days, 0 to 100 scale, 0 is no effect, 100 is complete control; for pest or weed control at 500 g/ha: 500 g ai/ha, 0 to 100 scale (0 no effect, 100 complete control), 10 days
Summary of the method: as §1

[5] = test system: soybean; experiment: Test A preemergence; assay type: in vivo, Glycine max; settings: Glycine max, pre-emergence, 240 h, read-out: Plant response rating, Soybean; for plant injury at 125 g/ha: 125 g ai/ha, visual injury after 10 days, 0 to 100 scale, 0 is no effect, 100 is complete control; for plant injury at 500 g/ha: 500 g ai/ha, 0 to 100 scale (0 no effect, 100 complete control), 10 days
Summary of the method: as §1

[6] = test system: blackgrass; experiment: Test A postemergence; assay type: in vivo, Alopecurus myosuroides; settings: Alopecurus myosuroides, post-emergence, 240 h; for pest or weed control at 125 g/ha: 125 g ai/ha; for pest or weed control at 500 g/ha: 500 g ai/ha
Summary of the method: as §1

[7] = test system: goosegrass; experiment: Test A postemergence; assay type: in vivo, Eleusine indica; settings: Eleusine indica, post-emergence, 240 h; for pest or weed control at 125 g/ha: 125 g ai/ha; for pest or weed control at 500 g/ha: 500 g ai/ha
Summary of the method: as §1

[8] = test system: oat, wild; experiment: Test A postemergence; assay type: in vivo, Avena fatua; settings: Avena fatua, post-emergence, 240 h; for pest or weed control at 125 g/ha: 125 g ai/ha; for pest or weed control at 500 g/ha: 500 g ai/ha
Summary of the method: as §1

[9] = test system: ryegrass, Italian; experiment: Test A postemergence; assay type: in vivo, Lolium multiflorum; settings: Lolium multiflorum, post-emergence, 240 h; for pest or weed control at 125 g/ha: 125 g ai/ha; for pest or weed control at 500 g/ha: 500 g ai/ha
Summary of the method: as §1

[10] = test system: wheat; experiment: Test A postemergence; assay type: in vivo, Triticum aestivum; settings: Triticum aestivum, post-emergence, 240 h; for plant injury at 125 g/ha: 125 g ai/ha; for plant injury at 500 g/ha: 500 g ai/ha
Summary of the method: as §1

[11] = test system: galium; experiment: Test A postemergence; assay type: in vivo, Galium aparine; settings: Galium, post-emergence, 240 h; for pest or weed control at 125 g/ha: 125 g ai/ha; for pest or weed control at 500 g/ha: 500 g ai/ha
Summary of the method: as §1

[12] = test system: ducksalad; experiment: Test B flooded paddy test; assay type: in vivo, Heteranthera limosa; settings: Heteranthera limosa, 312 h, 250 g ai/ha, Flood, 13 days, 0 to 100 scale (0 no effect, 100 complete control); read-out: Plant response rating, Ducksalad
Summary of the method: (§2)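 Percent weed or crop control, judged by eye on a 0–100 scale 13 days post-treatment, reflects compound added to a 3 cm flood maintained over 2-leaf plants in the greenhouse. Missing entries are marked with a dash.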

[13] = test system: rice; experiment: Test B flooded paddy test; assay type: in vivo, Oryza sativa; settings: Oryza sativa, 312 h; 250 g ai/ha, Flood, 13 days, 0 to 100 scale (0 no effect, 100 complete control); read-out: Plant response rating, Rice
Summary of the method: as §2

[14] = test system: sedge, umbrella; experiment: Test B flooded paddy test; assay type: in vivo, Cyperus difformis; settings: Cyperus difformis, 312 h; 250 g ai/ha, Flood, 13 days, 0 to 100 scale (0 no effect, 100 complete control); read-out: Plant response rating, Sedge, Umbrella
Summary of the method: as §2

[15] = postemergence, 10 days, visual injury, 0 to 100 scale (0 no effect, 100 complete control), read-out: Plant response rating, Blackgrass
[16] = postemergence, 10 days, visual injury, 0 to 100 scale (0 no effect, 100 complete control), read-out: Plant response rating, Goosegrass
[17] = postemergence, 10 days, visual injury, 0 to 100 scale (0 no effect, 100 complete control), read-out: Plant response rating, Oat, Wild
[18] = postemergence, 10 days, visual injury, 0 to 100 scale (0 no effect, 100 complete control), read-out: Plant response rating, Ryegrass, Italian
[19] = postemergence, 10 days, visual injury, 0 to 100 scale (0 no effect, 100 complete control), read-out: Plant response rating, Wheat
[20] = postemergence, 10 days, visual injury, 0 to 100 scale (0 no effect, 100 complete control), read-out: Plant response rating, Galium
[21] = postemergence, 10 days, 0 to 100 scale (0 no effect, 100 complete control), read-out: Blackgrass plant response rating
[22] = postemergence, 10 days, 0 to 100 scale (0 no effect, 100 complete control), read-out: Goosegrass plant response rating
[23] = postemergence, 10 days, 0 to 100 scale (0 no effect, 100 complete control), read-out: Oat, Wild plant response rating
[24] = postemergence, 10 days, 0 to 100 scale (0 no effect, 100 complete control), read-out: Ryegrass, Italian plant response rating
[25] = postemergence, 10 days, 0 to 100 scale (0 no effect, 100 complete control), read-out: Wheat plant response rating
[26] = postemergence, 10 days, 0 to 100 scale (0 no effect, 100 complete control), read-out: Galium plant response rating

| SMILES | pest or weed control at 125 g/ha [1] | pest or weed control at 500 g/ha [1] | pest or weed control at 125 g/ha [2] | pest or weed control at 500 g/ha [2] | pest or weed control at 125 g/ha [3] | pest or weed control at 500 g/ha [3] | pest or weed control at 125 g/ha [4] | pest or weed control at 500 g/ha [4] | plant injury at 125 g/ha [5] | plant injury at 500 g/ha [5] | pest or weed control at 250 g/ha [12] | plant injury at 250 g/ha [13] | pest or weed control at 250 g/ha [14] | pest or weed control at 125 g/ha [6, 21] | pest or weed control at 500 g/ha [6, 15] | pest or weed control at 125 g/ha [7, 22] | pest or weed control at 500 g/ha [7, 16] | pest or weed control at 125 g/ha [8, 23] | pest or weed control at 500 g/ha [8, 17] | pest or weed control at 125 g/ha [9, 24] | further results |
| --- | --- | --- | --- | --- | --- | --- | --- | --- | --- | --- | --- | --- | --- | --- | --- | --- | --- | --- | --- | --- | --- |
| C#Cc1ncn(-c2cccc(C(=O)N3C[C@H](C)Oc4c(C)cccc43)c2)n1 [Compound 64, [(2S)-2,3-Dihydro-2,8-dimethyl-4H-1,4-benzoxazin-4-yl][3-(3-ethynyl-1H-1,2,4-triazol-1-yl)phenyl]methanone] | 80% | 90% | 60% | 100% | 80% | 90% | 30% | 70% | 20% | 30% | 25% | 0% | 75% | – | – | – | – | – | – | – | pest or weed control at 125 g/ha [6, 15]: 40%; pest or weed control at 500 g/ha ([6]; Postemergence, 0 to 100 scale, read-out: Plant response rating, Blackgrass): 70%; pest or weed control at 125 g/ha [7, 16]: 10%; pest or weed control at 500 g/ha ([7]; Postemergence, 0 to 100 scale, read-out: Plant response rating, Goosegrass): 30%; pest or weed control at 125 g/ha [8, 17]: 50%; pest or weed control at 500 g/ha ([8]; Postemergence, 0 to 100 scale, read-out: Plant response rating, Oat, Wild): 70%; pest or weed control at 125 g/ha [9, 18]: 40%; pest or weed control at 500 g/ha ([9]; Postemergence, 0 to 100 scale, read-out: Plant response rating, Ryegrass, Italian): 100%; plant injury at 125 g/ha [10, 19]: 10%; plant injury at 500 g/ha ([10]; Postemergence, 0 to 100 scale, read-out: Plant response rating, Wheat): 40%; pest or weed control at 125 g/ha [11, 20]: 90%; pest or weed control at 500 g/ha ([11]; Postemergence, 0 to 100 scale, read-out: Plant response rating, Galium): 100% |
| COCc1ncn(-c2cccc(C(=O)N3C[C@H](C)Oc4c(C)cccc43)c2)n1 [Compound 101, [(2S)-2,3-Dihydro-2,8-dimethyl-4H-1,4-benzoxazin-4-yl][3-[3-(methoxymethyl)-1H-1,2,4-triazol-1-yl]phenyl]methanone] | 50% | 90% | 90% | 100% | 20% | 90% | 40% | 90% | 20% | 40% | 55% | 0% | 85% | 70% | 100% | 50% | 80% | 40% | 90% | 60% | pest or weed control at 500 g/ha [9, 18]: 60%; plant injury at 125 g/ha [10, 25]: 20%; plant injury at 500 g/ha [10, 19]: 70%; pest or weed control at 125 g/ha [11, 26]: 50%; pest or weed control at 500 g/ha [11, 20]: 90% |
| C[C@H]1CN(C(=O)c2cccc(-n3cnc(C4CCC4)n3)c2)c2cccc(Cl)c2O1 [Compound 93, [(2S)-8-Chloro-2,3-dihydro-2-methyl-4H-1,4-benzoxazin-4-yl][3-(3-cyclobutyl-1H-1,2,4-triazol-1-yl)phenyl]methanone] | 80% | 90% | 90% | 100% | 50% | 100% | 20% | 90% | 30% | 30% | 0% | 0% | 0% | 70% | 90% | 20% | 70% | 20% | 70% | 30% | pest or weed control at 500 g/ha [9, 18]: 90%; plant injury at 125 g/ha [10, 25]: 20%; plant injury at 500 g/ha [10, 19]: 20%; pest or weed control at 125 g/ha [11, 26]: 100%; pest or weed control at 500 g/ha [11, 20]: 100% |
